pIC50: −log10 of the molar value.
Target: T1, Human full-length diacylglycerol:acylCoA acyltransferase 1 (DGAT-1) (Homo sapiens, UniProt O75907)
T1 sequence (O75907 1-488): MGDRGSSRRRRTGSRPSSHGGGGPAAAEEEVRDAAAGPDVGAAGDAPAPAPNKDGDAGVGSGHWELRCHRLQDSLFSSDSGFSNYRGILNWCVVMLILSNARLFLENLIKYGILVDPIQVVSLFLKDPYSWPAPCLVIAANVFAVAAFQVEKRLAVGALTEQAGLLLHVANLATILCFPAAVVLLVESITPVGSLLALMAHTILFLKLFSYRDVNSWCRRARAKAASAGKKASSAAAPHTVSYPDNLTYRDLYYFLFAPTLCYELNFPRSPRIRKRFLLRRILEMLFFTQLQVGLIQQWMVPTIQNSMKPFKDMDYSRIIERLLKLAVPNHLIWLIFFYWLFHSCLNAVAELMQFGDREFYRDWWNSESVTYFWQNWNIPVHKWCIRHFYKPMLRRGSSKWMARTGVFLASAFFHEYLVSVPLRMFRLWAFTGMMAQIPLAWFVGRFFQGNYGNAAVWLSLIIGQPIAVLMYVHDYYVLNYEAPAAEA
Experiment: In vitro assay for inhibition of DGAT-1 activity (DGAT 1 Reduced Microsome Multidose Assay)
Conditions: Trial 1 Human IC50, Trial 1: as Trial 4 except microsomes at 25 μg/mL instead of 5 μg/mL; average where n > 1
Experimental: Human full-length diacylglycerol:acylCoA acyltransferase 1 (DGAT-1) was expressed in Sf9 insect cells which are then lysed and a crude membrane fraction (105,000×g pellet) was prepared.
Inhibitors in DMSO were pre-incubated with membranes before initiating the DGAT-1 reaction by the addition of decanoylCoA. […] The inhibitors were present at a range of eight concentrations to generate an apparent IC50 for each compound. […] Specifically, the eight concentrations used were 3 μM, 1 μM, 300 nM, 100 nM, 30 nM, 10 nM, 3 nM and 1 nM.
The reactions were allowed to proceed for 1.5 hours at room temperature and then terminated by the addition of 20 μl of EDTA (40 mM). Reaction mixture is then mixed by trituration with 30 μl of Microscint™-E (Perkin Elmer). […] Four separate trials were conducted. The method of analysis of Trial 1 was the same as Trial 4 (described above) except microsomes were utilized at 25 μg/mL instead of 5 μg/mL. The method of analysis of Trial 2 was the same as Trial 4 (described above) except eleven (11) concentrations of inhibitor were employed instead of eight (8). The method of analysis of Trial 3 was the same as Trial 2 except the compounds were serially diluted in a different laboratory.
Where this DGAT-1 inhibition assay was performed on a compound more than once, an average is provided for that compound.

Going from `CC(C)(O)CC[C@H]1CC[C@H](c2ccc(N3CCOc4ncnc(N)c4C3=O)cc2)CC1` [Example 1A-1] to `CC(F)(F)CN(CCO)C(=O)C[C@H]1CC[C@H](c2ccc(N3CCOc4ncnc(N)c4C3=O)cc2)CC1` [Example 6AD], the pIC50 rises from 6.98 to 7.38 (0.40 log units).

`CC(C)(C(N)=O)c1ccc(N2CCOc3ncnc(N)c3C2=O)cc1` [Example 1D, 2-[4-(4-amino-5-oxo-7,8-dihydropyrimido[5,4-f][1,4]oxazepin-6(5H)-yl)phenyl]-2-methylpropanamide] and `CC(C)(C#N)c1ccc(N2CCOc3ncnc(N)c3C2=O)cc1` [Example 1F, 2-[4-(4-amino-5-oxo-7,8-dihydropyrimido[5,4-f][1,4]oxazepin-6(5H)-yl)phenyl]-2-methylpropanenitrile] are within 0.2 log units of each other in pIC50: 5.56 for the first, 5.67 for the second.

`CCOC1CCN(C(=O)C[C@H]2CC[C@H](c3ccc(N4CCOc5ncnc(N)c5C4=O)cc3)CC2)CC1` [Example 6AB] and `CC1(C)C(=O)NCCN1C(=O)C[C@H]1CC[C@H](c2ccc(N3CCOc4ncnc(N)c4C3=O)cc2)CC1` [Example 6AE] are within 0.2 log units of each other in pIC50: 7.26 for the first, 7.12 for the second.

`CN(C)C(=O)CCN(C)C(=O)C[C@H]1CC[C@H](c2ccc(N3CCOc4ncnc(N)c4C3=O)cc2)CC1` [Example 6AC] gave a pIC50 of 6.75.

Same assay, conditions: Trial 2 Human IC50, Trial 2: as Trial 4 except eleven concentrations of inhibitor instead of eight; average where n > 1

`Nc1ncnc2c1C(=O)N(c1ccc([C@H]3CC[C@H](CCO)CC3)cc1)CCO2` [Example 1E, 4-amino-6-{4-[trans-4-(2-hydroxyethyl)cyclohexyl]phenyl}-7,8-dihydropyrimido[5,4-f][1,4]oxazepin-5(6H)-one] and `CC(C)c1ccc(N2CCOc3ncnc(N)c3C2=O)cc1` [Example 1H] are within 0.2 log units of each other in pIC50: 7.85 for the first, 7.77 for the second.

First: CC(C)(C#N)c1ccc(N2CCOc3ncnc(N)c3C2=O)cc1 [Example 1F, 2-[4-(4-amino-5-oxo-7,8-dihydropyrimido[5,4-f][1,4]oxazepin-6(5H)-yl)phenyl]-2-methylpropanenitrile]
Second: C[C@@H]1CN(c2ccc(C(C)(C)C)cc2)C(=O)c2c(N)ncnc2O1 [Example 1I, (8R)-4-amino-6-(4-tert-butylphenyl)-8-methyl-7,8-dihydropyrimido[5,4-f]-[1,4]oxazepin-5(6H)-one]
The pIC50 of the first is 1.85 log units lower: 5.89 for the first, 7.74 for the second.

Same assay, conditions: Trial 3 Human IC50, Trial 3: as Trial 2 except compounds serially diluted in a different laboratory; average where n > 1

Going from `Nc1ncnc2c1C(=O)N(c1ccc([C@H]3CC[C@H](CCO)CC3)cc1)CCO2` [Example 1E, 4-amino-6-{4-[trans-4-(2-hydroxyethyl)cyclohexyl]phenyl}-7,8-dihydropyrimido[5,4-f][1,4]oxazepin-5(6H)-one] to `CC(C)c1ccc(N2CCOc3ncnc(N)c3C2=O)cc1` [Example 1H], the pIC50 falls from 8.01 to 7.58 (0.43 log units). The first is the more potent here.

Going from `CC(C)(C#N)c1ccc(N2CCOc3ncnc(N)c3C2=O)cc1` [Example 1F, 2-[4-(4-amino-5-oxo-7,8-dihydropyrimido[5,4-f][1,4]oxazepin-6(5H)-yl)phenyl]-2-methylpropanenitrile] to `C[C@@H]1CN(c2ccc(C(C)(C)C)cc2)C(=O)c2c(N)ncnc2O1` [Example 1I, (8R)-4-amino-6-(4-tert-butylphenyl)-8-methyl-7,8-dihydropyrimido[5,4-f]-[1,4]oxazepin-5(6H)-one], the pIC50 rises from 5.58 to 7.47 (1.89 log units).

Same assay, conditions: Trial 4 Human IC50, Trial 4: eight concentrations of inhibitor, microsomes 5 μg/mL; average where n > 1

First: C[C@@H]1CN(c2ccc(C(C)(C)O)cc2)C(=O)c2c(N)ncnc2O1 [Example 1A-2, (8R)-4-amino-6-(4-(2-hydroxypropan-2-yl)phenyl)-8-methyl-7,8-dihydropyrimido[5,4-f][1,4]oxazepin-5(6H)-one]
Second: C[C@@H]1CN(c2ccc(C(C)(C)C)cc2)C(=O)c2c(N)ncnc2O1 [Example 1I, (8R)-4-amino-6-(4-tert-butylphenyl)-8-methyl-7,8-dihydropyrimido[5,4-f]-[1,4]oxazepin-5(6H)-one]
The pIC50 of the first is 0.58 log units lower: 7.21 for the first, 7.79 for the second.

`COCC(C)(C)c1ccc(N2C[C@@H](C)Oc3ncnc(N)c3C2=O)cc1` [Example 1AA] and `COC(C)(C)c1ccc(N2C[C@@H](C)Oc3ncnc(N)c3C2=O)cc1` [Example 1AL, (8R)-4-amino-6-[4-(1-methoxy-1-methylethyl)phenyl]-8-methyl-7,8-dihydropyrimido[5,4-f][1,4]oxazepin-5(6H)-one] are within 0.2 log units of each other in pIC50: 7.37 for the first, 7.46 for the second.

Compared with `C[C@@H]1CN(c2ccc(Cl)c(Cl)c2)C(=O)c2c(N)ncnc2O1` [Example 1AB, (8R)-4-amino-6-(3,4-dichlorophenyl)-8-methyl-7,8-dihydropyrimido[5,4-F][1,4]oxazepin-5(6H)-one], `C[C@@H]1CN(c2ccc3c(c2)CCC3)C(=O)c2c(N)ncnc2O1` [Example 1S] is higher in pIC50: 7.61 for the first, over 7.97 for the second. The second is the more potent here.

First: C[C@@H]1CN(c2ccc([C@@H](O)C(C)(C)C)cc2)C(=O)c2c(N)ncnc2O1 [Example 1AC]
Second: C[C@@H]1CN(c2ccc([C@H](O)C(C)(C)C)cc2)C(=O)c2c(N)ncnc2O1 [Example 1AD]
The pIC50 of the first is 0.39 log units lower: 7.26 for the first, 7.65 for the second.

`C[C@@H]1CN(c2ccc(C3(C(N)=O)CCCCC3)cc2)C(=O)c2c(N)ncnc2O1` [Example 1AE, 1-{4-[(8R)-4-amino-8-methyl-5-oxo-7,8-dihydropyrimido[5,4-f][1,4]oxazepin-6(5H)-yl]phenyl}cyclohexanecarboxamide] and `C[C@@H]1CN(c2ccc(C3(C(N)=O)CCCC3)cc2)C(=O)c2c(N)ncnc2O1` [Example 1AF, 1-{4-[(8R)-4-amino-8-methyl-5-oxo-7,8-dihydropyrimido[5,4-f][1,4]oxazepin-6(5H)-yl]phenyl}cyclopentanecarboxamide] are within 0.2 log units of each other in pIC50: 7.08 for the first, 6.93 for the second.

First: COC(C)(C)Cc1ccc(N2C[C@@H](C)Oc3ncnc(N)c3C2=O)cc1 [Example 1AG]
Second: C[C@@H]1CN(c2ccc(CC(C)(C)O)cc2)C(=O)c2c(N)ncnc2O1 [Example 1AN]
The pIC50 of the first is 0.36 log units higher: 7.34 for the first, 6.98 for the second.

First: C[C@@H]1CN(c2ccc(C3(C(N)=O)CCC3)cc2)C(=O)c2c(N)ncnc2O1 [Example 1AH, 1-{4-[(8R)-4-amino-8-methyl-5-oxo-7,8-dihydropyrimido[5,4-f][1,4]oxazepin-6(5H)-yl]phenyl}cyclobutanecarboxamide]
Second: C[C@@H]1CN(c2ccc(C3(O)CCCCC3)cc2)C(=O)c2c(N)ncnc2O1 [Example 1AJ]
The pIC50 of the first is 0.34 log units lower: 7.11 for the first, 7.45 for the second. The second is the more potent here.

Going from `CCC(CC)(OC)c1ccc(N2C[C@@H](C)Oc3ncnc(N)c3C2=O)cc1` [Example 1AI, (8R)-4-amino-6-[4-(1-ethyl-1-methoxypropyl)phenyl]-8-methyl-7,8-dihydropyrimido[5,4-f][1,4]oxazepin-5(6H)-one] to `CCC(O)(CC)c1ccc(N2C[C@@H](C)Oc3ncnc(N)c3C2=O)cc1` [Example 1AP, (8R)-4-Amino-6-[4-(1-ethyl-1-hydroxypropyl)phenyl]-8-methyl-7,8-dihydropyrimido[5,4-f][1,4]oxazepin-5(6H)-one], the pIC50 falls from 7.81 to 7.53 (0.28 log units). The first is the more potent here.

`CCOC(C)(C)c1ccc(N2C[C@@H](C)Oc3ncnc(N)c3C2=O)cc1` [Example 1AK, (8R)-4-amino-6-[4-(1-ethoxy-1-methylethyl)phenyl]-8-methyl-7,8-dihydropyrimido[5,4-f][1,4]oxazepin-5(6H)-one] and `C[C@@H]1CN(c2ccc(C(C)(C)F)cc2)C(=O)c2c(N)ncnc2O1` [Example 1L, (8R)-4-amino-6-[4-(1-fluoro-1-methylethyl)phenyl]-8-methyl-7,8-dihydropyrimido[5,4-f][1,4]oxazepin-5(6H)-one] are within 0.2 log units of each other in pIC50: 7.37 for the first, 7.34 for the second.

Compared with `C[C@@H]1CN(c2ccc(CC(N)=O)cc2)C(=O)c2c(N)ncnc2O1` [Example 1AM, (8R)-2-(4-(4-amino-8-methyl-5-oxo-7,8-dihydropyrimido[5,4-f][1,4]oxazepin-6(5H)-yl)phenyl)acetamide], `CCc1ccc(N2C[C@@H](C)Oc3ncnc(N)c3C2=O)cc1` [Example 1M, (8R)-4-amino-6-(4-ethylphenyl)-8-methyl-7,8-dihydropyrimido[5,4-f]-[1,4]oxazepin-5(6H)-one] is 1.36 log units higher in pIC50: 6.50 for the first, 7.86 for the second.

`C[C@@H]1CN(c2ccc(C(C)(C)C(=O)O)cc2)C(=O)c2c(N)ncnc2O1` [Example 1AO, 2-{4-[(8R)-4-amino-8-methyl-5-oxo-7,8-dihydropyrimido[5,4-f][1,4]oxazepin-6(5H)-yl]phenyl}-2-methylpropanoic acid] and `C[C@@H]1CN(c2ccc(C(C)(C)C(N)=O)cc2)C(=O)c2c(N)ncnc2O1` [Example 1AR] are within 0.2 log units of each other in pIC50: 7.70 for the first, 7.62 for the second.

`C[C@@H]1CN(c2ccc(C(C)(C)CO)cc2)C(=O)c2c(N)ncnc2O1` [Example 1AQ] and `COC(=O)C(C)(C)c1ccc(N2C[C@@H](C)Oc3ncnc(N)c3C2=O)cc1` [Example 1X] are within 0.2 log units of each other in pIC50: 7.51 for the first, 7.49 for the second.

Going from `COC(=O)c1ccc(N2C[C@@H](C)Oc3ncnc(N)c3C2=O)cc1` [Example 1J, Methyl 4-[(8R)-4-amino-8-methyl-5-oxo-7,8-dihydropyrimido[5,4-f][1,4]oxazepin-6(5H)-yl]benzoate] to `Cc1ccc(N2C[C@@H](C)Oc3ncnc(N)c3C2=O)cc1` [Example 1P, (8R)-4-amino-8-methyl-6-(4-methylphenyl)-7,8-dihydropyrimido[5,4-f]-[1,4]oxazepin-5(6H)-one], the pIC50 rises from 6.79 to 7.28 (0.49 log units). The second is the more potent here.

Going from `CC(C)c1ccc(N2C[C@@H](C)Oc3ncnc(N)c3C2=O)cc1` [Example 1K, (8R)-4-amino-6-(4-isopropylphenyl)-8-methyl-7,8-dihydropyrimido[5,4-f]-[1,4]oxazepin-5(6H)-one] to `CC(O)c1ccc(N2C[C@@H](C)Oc3ncnc(N)c3C2=O)cc1` (stereo partly drawn) [Example 1W], the pIC50 falls from 7.75 to 6.84 (0.91 log units).

First: COc1nc(N)c2c(n1)O[C@H](C)CN(c1ccc(C(C)(C)C)cc1)C2=O [Example 1N]
Second: C[C@@H]1CN(c2ccc(C(C)(C)C(F)(F)F)cc2)C(=O)c2c(N)ncnc2O1 [Example 1Z, (8R)-4-amino-8-methyl-6-[4-(2,2,2-trifluoro-1,1-dimethylethyl)phenyl]-7,8-dihydropyrimido[5,4-f][1,4]oxazepin-5(6H)-one]
The pIC50 of the first is 0.49 log units lower: 7.35 for the first, 7.84 for the second. The second is the more potent here.

Going from `C[C@@H]1CN(c2ccc([C@H]3C[C@@H](O)C3)cc2)C(=O)c2c(N)ncnc2O1` [Example 1Q] to `C[C@@H]1CN(c2ccc(C3CC3)cc2)C(=O)c2c(N)ncnc2O1` [Example 1U], the pIC50 rises from 7.12 to 7.70 (0.58 log units). The second is the more potent here.

`C[C@@H]1CN(c2ccc(C(O)C(F)(F)F)cc2)C(=O)c2c(N)ncnc2O1` (stereo partly drawn) [Example 1R] and `C[C@@H]1CN(c2ccc(C(O)(C(F)(F)F)C(F)(F)F)cc2)C(=O)c2c(N)ncnc2O1` [Example 1V] are within 0.2 log units of each other in pIC50: 7.42 for the first, 7.40 for the second.

`CC(C)Cc1ccc(N2C[C@@H](C)Oc3ncnc(N)c3C2=O)cc1` [Example 1Y, (8R)-4-amino-6-(4-isobutylphenyl)-8-methyl-7,8-dihydropyrimido[5,4-f]-[1,4]oxazepin-5(6H)-one] and `Cc1noc(C[C@H]2CC[C@H](c3ccc(N4C[C@@H](C)Oc5ncnc(N)c5C4=O)cc3)CC2)n1` [Example 2C] are within 0.2 log units of each other in pIC50: 8.17 for the first, 8.09 for the second.

Source: patent US20100204119A1, “4-AMINO-5-OXO-7,8-DIHYDROPYRIMIDO[5,4-F][1,4]OXAZEPIN-6(5H)-YL PHENYL DERIVATIVES” (Pfizer Inc, priority 2009, published 2010)
